Values of other authors, collected in patent US20040132743A1 (DR. REDDY'S LABORATORIES LIMITED DR. REDDY'S LABORATORIES, …, priority 2002, published 2004).

Experiments:
[1] = in vivo
[2] = studies in patients
[3] = amorphous form compared with crystalline form

O=C(O)COCCN1CCN([C@H](c2ccccc2)c2ccc(Cl)cc2)CC1 [Levocetirizine]
side effects on the central nervous system [1]: free from side effects on the central nervous system

O=C(O)COCCN1CCN(C(c2ccccc2)c2ccc(Cl)cc2)CC1 (racemic) [cetirizine]
symptomatic relief of seasonal allergies [2]: safe and effective, symptomatic relief of seasonal allergies

CO/N=C(\C(=O)N[C@@H]1C(=O)N2C(C(=O)OC(C)OC(C)=O)=C(COC(N)=O)CS[C@H]12)c1ccco1 (stereo partly drawn) [amorphous form of cefuroxime axetil, cefuroxime axetil]
bioavailability [3]: higher bioavailability than its crystalline form
